Measurements taken from patent publication US11213590B2, “SSTR-targeted conjugates and particles and formulations thereof” (priority 2016, dated 2022).

Experiments:
[1] = Buffer screening for solution stability; assay type: physicochemical; details: acetate buffer versus citrate and phosphate buffers; pH range of 4.0 to 4.8
Excerpt: Conjugate 57 is a free flowing powder. The formulation development of Conjugate 57 was accomplished by screening conditions that would provide stability and tonicity to the drug product solution. […] The buffer is formed by a combination of sodium acetate and acetic acid. In summary, acetate buffer, a commonly used parenteral buffer, is used to dissolve Conjugate 57 and ensure stability at a pH range of 4.0 to 4.8.

SSTR2 [2] = target: T1, SSTR2 (Homo sapiens, UniProt P30874); assay: Affinity profile (half-maximal inhibitory concentration), SSTR2; assay type: binding
Excerpt: (§1) DOTATE, also known as DOTA-TATE or DOTA-octreotate, comprises an amide of the acid DOTA, which connects a radionuclide and (Tyr3)-octreotate, a derivative of octreotide. DOTATOC, also known as edotreotide, SMT487, or (DOTA^0-Phe^1-Tyr^3)octreotide, is also an octreotide derivative which can be bound to radionuclides for diagnosis and treatment.

[3] = test system: HCC-33 (small cell lung cancer) xenograft; assay: HCC-33 xenograft efficacy; assay type: in vivo
Method: HCC-33 (small cell lung cancer) xenograft was chosen to study efficacy of Conjugate 57. In some groups, Conjugate 57 was given at 1.0 mg/kg, 0.5 mg/kg or 0.33 mg/kg every week for 30 days, a total of four doses for each animal. In some other groups, Conjugate 57 was also given at 0.5 mg/kg or 0.25 mg/kg twice a week for 30 days, a total of 8 total doses for each animal.

[4] = Pharmacokinetics in patients; assay type: in vivo; details: human, venous blood, intravenous; in a patient
Method: For C1D1 and C3D1, venous blood samples (4-6 ml) for determination of Conjugate 57, the somatostatin analog peptide component of Conjugate 57 (BT-979), and DM1 (total, unconjugated, and free sulfhydryl) are taken before the start of the infusion, at 0.5 hours (±1 minute) after the start of study drug infusion; precisely at the end of infusion; and 1.5 hours (±5 minutes), 2 hours (±5 minutes), 4 hours (±5 minutes), 6 hours (±5 minutes), 8 hours (±5 minutes), and 10 hours (±5 minutes) after the start of study drug infusion. If the 10 hour time point requires an inpatient admission at the center, the 10 hour time point is not collected. The date and time of collection of each sample are recorded.

SSTR5 = SSTR5 (Homo sapiens, UniProt P35346); assay: Affinity profile (half-maximal inhibitory concentration), SSTR5; assay type: binding
Excerpt: as §1

SSTR2 [5] = target: T1, SSTR2; assay: SSTR2 receptor internalization in H524-MD tumor xenograft (IHC staining); assay type: in vivo; parameters: highly expressing SSTR2 positive (SSTR2+) tumor xenograft; endogenous in cells
Method: SSTR2 receptor internalization was studied using Conjugate 57 in a highly expressing SSTR2 positive (SSTR2+) tumor xenograft: H524_MD tumor xenograft. Vehicle (0.1% Solutol/5% Mannitol), Conjugate 57 at 2 mg/kg, scrambled control (BT-984) at 2 mg/kg, and Octreotide at 1.4 mg/kg (ligand alone) were given to SSTR2+ H524-MD tumor xenografts (n=3/group). Timepoints—0 hr (Vehicle), 15 mins, 1 hr, 4 hr, 24 hr and 72 hrs. SSTR2 scoring was done by immunohistochemistry (IHC) staining.

T1 sequence (P30874 whole entry): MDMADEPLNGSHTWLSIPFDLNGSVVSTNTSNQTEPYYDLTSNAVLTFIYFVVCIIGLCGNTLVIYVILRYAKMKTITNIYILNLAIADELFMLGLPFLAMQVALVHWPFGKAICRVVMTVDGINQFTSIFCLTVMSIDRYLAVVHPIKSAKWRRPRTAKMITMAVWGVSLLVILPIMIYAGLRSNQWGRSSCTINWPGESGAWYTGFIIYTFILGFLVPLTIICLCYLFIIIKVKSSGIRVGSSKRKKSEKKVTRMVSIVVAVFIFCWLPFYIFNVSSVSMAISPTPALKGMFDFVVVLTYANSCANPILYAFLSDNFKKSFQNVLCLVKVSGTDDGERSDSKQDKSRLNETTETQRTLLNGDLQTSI
SSTR5, sequence (P35346 whole entry): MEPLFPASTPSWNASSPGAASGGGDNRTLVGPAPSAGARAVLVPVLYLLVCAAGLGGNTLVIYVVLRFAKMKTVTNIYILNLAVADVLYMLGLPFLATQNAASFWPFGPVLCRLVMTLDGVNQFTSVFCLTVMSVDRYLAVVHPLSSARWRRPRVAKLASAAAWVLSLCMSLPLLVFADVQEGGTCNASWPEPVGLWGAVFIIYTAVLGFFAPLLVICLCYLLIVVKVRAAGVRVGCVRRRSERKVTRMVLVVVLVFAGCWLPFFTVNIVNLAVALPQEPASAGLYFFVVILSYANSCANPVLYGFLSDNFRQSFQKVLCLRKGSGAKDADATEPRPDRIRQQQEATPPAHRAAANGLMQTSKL

COc1cc2cc(c1Cl)N(C)C(=O)C[C@H](OC(=O)[C@H](C)N(C)C(=O)CCSSC[C@H](NC(=O)[C@@H]1CSSC[C@H](NC(=O)[C@H](N)Cc3ccccc3)C(=O)N[C@@H](Cc3ccc(O)cc3)C(=O)N[C@H](Cc3c[nH]c4ccccc34)C(=O)N[C@@H](CCCCN)C(=O)N[C@@H]([C@@H](C)O)C(=O)N1)C(N)=O)[C@]1(C)O[C@H]1[C@H](C)[C@@H]1C[C@@](O)(NC(=O)O1)[C@H](OC)/C=C/C=C(\C)C2 [Conjugate 57]
solution stability by buffer [1]: most stability
IC50 (SSTR2 [2]): 0.042 nM
TGI % ([3]; 0.25 mg/kg 2x/wk (8 doses), Day 4): −12.5%
TGI % ([3]; 0.25 mg/kg 2x/wk (8 doses), Day 8): 50.4%
TGI % ([3]; 0.25 mg/kg 2x/wk (8 doses), Day 11): 67.3%
TGI % ([3]; 0.25 mg/kg 2x/wk (8 doses), Day 15): 85.8%
TGI % ([3]; 0.25 mg/kg 2x/wk (8 doses), Day 18): 92.3%
TGI % ([3]; 0.25 mg/kg 2x/wk (8 doses), Day 22): 95.8%
TGI % ([3]; 0.25 mg/kg 2x/wk (8 doses), Day 25): 97.2%
TGI % ([3]; 0.25 mg/kg 2x/wk (8 doses), Day 29): 97.8%
TGI % ([3]; 0.33 mg/kg every week (4 doses), Day 4): 2.1%
TGI % ([3]; 0.33 mg/kg every week (4 doses), Day 8): 34.2%
TGI % ([3]; 0.33 mg/kg every week (4 doses), Day 11): 48%
TGI % ([3]; 0.33 mg/kg every week (4 doses), Day 15): 62.4%
TGI % ([3]; 0.33 mg/kg every week (4 doses), Day 18): 73.8%
TGI % ([3]; 0.33 mg/kg every week (4 doses), Day 22): 79%
TGI % ([3]; 0.33 mg/kg every week (4 doses), Day 25): 83.4%
TGI % ([3]; 0.33 mg/kg every week (4 doses), Day 29): 78.5%
TGI % ([3]; 0.5 mg/kg 2x/wk (8 doses), Day 4): 0.5%
TGI % ([3]; 0.5 mg/kg 2x/wk (8 doses), Day 8): 61.6%
TGI % ([3]; 0.5 mg/kg 2x/wk (8 doses), Day 11): 78.3%
TGI % ([3]; 0.5 mg/kg 2x/wk (8 doses), Day 15): 91.8%
TGI % ([3]; 0.5 mg/kg 2x/wk (8 doses), Day 18): 96.2%
TGI % ([3]; 0.5 mg/kg 2x/wk (8 doses), Day 22): 97.6%
TGI % ([3]; 0.5 mg/kg 2x/wk (8 doses), Day 25): 99.1%
TGI % ([3]; 0.5 mg/kg 2x/wk (8 doses), Day 29): 99.2%
TGI % ([3]; 0.5 mg/kg every week (4 doses), Day 4): 1.6%
TGI % ([3]; 0.5 mg/kg every week (4 doses), Day 8): 60.3%
TGI % ([3]; 0.5 mg/kg every week (4 doses), Day 11): 68.8%
TGI % ([3]; 0.5 mg/kg every week (4 doses), Day 15): 82.7%
TGI % ([3]; 0.5 mg/kg every week (4 doses), Day 18): 87.1%
TGI % ([3]; 0.5 mg/kg every week (4 doses), Day 22): 91.1%
TGI % ([3]; 0.5 mg/kg every week (4 doses), Day 25): 93.6%
TGI % ([3]; 0.5 mg/kg every week (4 doses), Day 29): 89.5%
TGI % ([3]; 1.0 mg/kg every week (4 doses), Day 4): 25.8%
TGI % ([3]; 1.0 mg/kg every week (4 doses), Day 8): 69.9%
TGI % ([3]; 1.0 mg/kg every week (4 doses), Day 11): 84.4%
TGI % ([3]; 1.0 mg/kg every week (4 doses), Day 15): 93.6%
TGI % ([3]; 1.0 mg/kg every week (4 doses), Day 18): 97.4%
TGI % ([3]; 1.0 mg/kg every week (4 doses), Day 22): 99.2%
TGI % ([3]; 1.0 mg/kg every week (4 doses), Day 25): 99.8%
TGI % ([3]; 1.0 mg/kg every week (4 doses), Day 29): 99.7%
Body weights ([3]; HCC-33 xenograft, all groups): good
tolerability of multiple doses ([3]; HCC-33 xenograft, weekly or twice weekly dosing for 30 days): well tolerated
half-life [4]: ~1.8 h
IC50 (SSTR5): 24 nM
SSTR2 receptor internalization/distribution in vivo (SSTR2 [5]; 2 mg/kg, H524-MD tumor xenograft): significant receptor internalization/distribution
SSTR2 receptor internalization, intensity of staining analysis (SSTR2 [5]; 2 mg/kg, versus BT-984 and naïve at 1 hr, 4 hr and 72 hours): significantly different results
SSTR2 internalization, distribution of staining analysis (SSTR2 [5]; 2 mg/kg, versus BT-984 and naïve at 4 hr, 24 hr and 72 hours): significantly different results
SSTR2 internalization compared with octreotide alone (SSTR2 [5]; Conjugate 57 2 mg/kg, octreotide 1.4 mg/kg): more SSTR2 internalization than octreotide alone
